Patent EP4810052A2, “HCRHR2 SELECTIVE POLYPEPTIDES” (Gubra A/S, priority 2023, dated 2026)
Like-named read-outs stand apart in the source and are kept apart here. Starred links: 1 amine or outer side, 2 acyl side, 3 side chain; linkers in the order of their positions; H or OH if unused. Non-standard residues stand in square brackets, D forms with d. Residues, ends and D or L forms follow the SMILES beside them. Groups on a side chain read outwards from the residue. *: point of attachment. C20 diacid = O=C(O)CCCCCCCCCCCCCCCCCCC(=O)*; γGlu = O=C(O)[C@H](CCC(=O)[*:2])N[*:1]; Nle = CCCC[C@H](N)C(=O)O; AEEA = NCCOCCOCC(=O)O

Assays:
hCRHR2 = target: T1, hCRHR2 (Homo sapiens, UniProt Q13324); experiment: HTRF cAMP assay, determination of hCRHR2 potency (peptide libraries 5 conc., purified peptides 11 conc.); format: cell-based
T1 sequence (Q13324 1-411): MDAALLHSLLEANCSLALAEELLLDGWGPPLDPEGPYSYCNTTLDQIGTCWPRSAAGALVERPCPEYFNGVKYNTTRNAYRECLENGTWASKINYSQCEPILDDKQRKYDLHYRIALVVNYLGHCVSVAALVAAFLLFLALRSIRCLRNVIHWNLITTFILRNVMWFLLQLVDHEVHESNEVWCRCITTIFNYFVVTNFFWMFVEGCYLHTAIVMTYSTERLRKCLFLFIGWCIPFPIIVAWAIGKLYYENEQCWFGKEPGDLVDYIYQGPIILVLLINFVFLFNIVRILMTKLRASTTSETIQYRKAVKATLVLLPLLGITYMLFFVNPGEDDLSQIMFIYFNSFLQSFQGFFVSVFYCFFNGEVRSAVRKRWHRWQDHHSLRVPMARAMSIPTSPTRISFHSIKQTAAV
Summary of the method: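 Agonist peptides are added to suspended, freshly thawed CHO-K1 cells that stably carry the human receptor. Intracellular cAMP competes with d2-cAMP for a cryptate-tagged antibody, lowering the FRET signal. A variable-slope sigmoid curve is fitted to obtain EC50.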

hCRHR1 = target: T2, hCRHR1 (Homo sapiens, UniProt P34998); experiment: HTRF cAMP assay, determination of hCRHR1 potency (peptide libraries 5 conc., purified peptides 11 conc.); format: cell-based
T2 sequence (P34998 24-415): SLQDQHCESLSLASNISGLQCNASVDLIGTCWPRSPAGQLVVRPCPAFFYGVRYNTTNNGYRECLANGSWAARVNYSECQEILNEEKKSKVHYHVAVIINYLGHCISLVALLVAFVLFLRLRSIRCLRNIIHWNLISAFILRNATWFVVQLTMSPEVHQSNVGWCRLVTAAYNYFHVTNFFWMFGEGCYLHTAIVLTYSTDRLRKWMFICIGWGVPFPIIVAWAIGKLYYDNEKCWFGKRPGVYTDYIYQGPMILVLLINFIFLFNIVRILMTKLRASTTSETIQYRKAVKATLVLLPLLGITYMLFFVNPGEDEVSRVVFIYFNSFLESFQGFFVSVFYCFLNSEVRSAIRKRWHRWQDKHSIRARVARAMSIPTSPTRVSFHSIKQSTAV
Summary of the method: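 CHO-K1 cells stably expressing human CRHR1, thawed from frozen stocks just before use, were stimulated in suspension with agonist peptides. cAMP was measured by HTRF competitive immunoassay (cryptate anti-cAMP antibody vs d2-cAMP).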

[1] = library peptides, matched molecular pairs L vs Nle in position X^38, read-out: Potency hCRHR2 pEC50 (converted)
[2] = library peptides, matched molecular pairs L vs Nle in position X^38, read-out: Potency hCRHR1 pEC50 (converted)

| SMILES | Selectivity ratio (hCRHR1/ hCRHR2) (hCRHR2; hCRHR1-EC50/hCRHR2-EC50) | EC50 (hCRHR2; purified peptides, CHO-K1 cells stably expressing hCRHR2, cAMP HTRF, read-out: hCRHR2 EC50) [nM] | EC50 (hCRHR1; purified peptides, CHO-K1 cells stably expressing hCRHR1, cAMP HTRF, read-out: hCRHR1 EC50) [nM] | EC50 (hCRHR2; [1]) [nM] | EC50 (hCRHR1; [2]) [nM] |
| --- | --- | --- | --- | --- | --- |
| CC[C@H](C)[C@H](N)C(=O)N[C@H](C(=O)N[C@@H](CC(C)C)C(=O)N[C@@H](CO)C(=O)N[C@@H](CC(C)C)C(=O)N[C@@H](CC(=O)O)C(=O)N[C@H](C(=O)N1CCC[C@H]1C(=O)N[C@H](C(=O)NCC(=O)N[C@@H](CC(C)C)C(=O)N[C@@H](CCCCNC(=O)COCCOCCNC(=O)COCCOCCNC(=O)CC[C@H](NC(=O)CC[C@H](NC(=O)CCCCCCCCCCCCCCCCCCC(=O)O)C(=O)O)C(=O)O)C(=O)N[C@@H](CCC(N)=O)C(=O)N[C@H](C(=O)N[C@@H](CC(C)C)C(=O)N[C@@H](CC(C)C)C(=O)N[C@@H](CCC(=O)O)C(=O)N[C@@H](CCC(N)=O)C(=O)N[C@@H](C)C(=O)N[C@@H](CCCNC(=N)N)C(=O)N[C@@H](C)C(=O)N[C@@H](CCCNC(=N)N)C(=O)N[C@@H](C)C(=O)N[C@@H](C)C(=O)N[C@@H](CCCNC(=N)N)C(=O)N[C@@H](CCC(=O)O)C(=O)N[C@@H](CCC(N)=O)C(=O)N[C@@H](C)C(=O)N[C@H](C(=O)N[C@H](C(=O)N[C@@H](CC(N)=O)C(=O)N[C@@H](C)C(=O)N[C@@H](CCC(=O)O)C(=O)N[C@H](C(=O)N[C@@H](CC(C)C)C(=O)N[C@@H](C)C(=O)N[C@@H](CCC(=O)O)C(=O)N[C@H](C(N)=O)C(C)C)[C@@H](C)CC)[C@@H](C)O)[C@@H](C)O)[C@@H](C)CC)[C@@H](C)CC)C(C)C)C(C)C [SEQ ID NO: 261] (H-IVLSLDVPIGLK([AEEA-AEEA-γGlu-γGlu-C20 diacid])QILLEQARARAAREQATTNAEILAEV-NH2) | >208 | 24 | > 5000 |  |  |
| CC[C@H](C)[C@H](N)C(=O)N[C@H](C(=O)N[C@@H](CC(C)C)C(=O)N[C@@H](CO)C(=O)N[C@@H](CC(C)C)C(=O)N[C@@H](CC(=O)O)C(=O)N[C@H](C(=O)N1CCC[C@H]1C(=O)N[C@H](C(=O)NCC(=O)N[C@@H](CC(C)C)C(=O)N[C@@H](CC(C)C)C(=O)N[C@@H](CCC(N)=O)C(=O)N[C@H](C(=O)N[C@@H](CC(C)C)C(=O)N[C@@H](CC(C)C)C(=O)N[C@@H](CCC(=O)O)C(=O)N[C@@H](CCC(N)=O)C(=O)N[C@@H](C)C(=O)N[C@@H](CCCNC(=N)N)C(=O)N[C@@H](C)C(=O)N[C@@H](CCC(N)=O)C(=O)N[C@@H](C)C(=O)N[C@@H](C)C(=O)N[C@@H](CCCNC(=N)N)C(=O)N[C@@H](CCC(=O)O)C(=O)N[C@@H](CCCNC(=N)N)C(=O)N[C@@H](C)C(=O)N[C@@H](CCCCNC(=O)COCCOCCNC(=O)COCCOCCNC(=O)CC[C@H](NC(=O)CC[C@H](NC(=O)CCCCCCCCCCCCCCCCCCC(=O)O)C(=O)O)C(=O)O)C(=O)N[C@H](C(=O)N[C@@H](CC(N)=O)C(=O)N[C@@H](C)C(=O)N[C@@H](CCC(=O)O)C(=O)N[C@H](C(=O)N[C@@H](CC(C)C)C(=O)N[C@@H](C)C(=O)N[C@@H](CCC(=O)O)C(=O)N[C@H](C(N)=O)C(C)C)[C@@H](C)CC)[C@@H](C)O)[C@@H](C)CC)[C@@H](C)CC)C(C)C)C(C)C [compound 48] (H-IVLSLDVPIGLLQILLEQARAQAARERAK([AEEA-AEEA-γGlu-γGlu-C20 diacid])TNAEILAEV-NH2) |  |  |  | 0.398 | 20000 |
| CCCC[C@H](NC(=O)[C@@H](NC(=O)[C@H](CCC(=O)O)NC(=O)[C@H](C)NC(=O)[C@H](CC(N)=O)NC(=O)[C@@H](NC(=O)[C@H](CCCCNC(=O)COCCOCCNC(=O)COCCOCCNC(=O)CC[C@H](NC(=O)CC[C@H](NC(=O)CCCCCCCCCCCCCCCCCCC(=O)O)C(=O)O)C(=O)O)NC(=O)[C@H](C)NC(=O)[C@H](CCCNC(=N)N)NC(=O)[C@H](CCC(=O)O)NC(=O)[C@H](CCCNC(=N)N)NC(=O)[C@H](C)NC(=O)[C@H](C)NC(=O)[C@H](CCC(N)=O)NC(=O)[C@H](C)NC(=O)[C@H](CCCNC(=N)N)NC(=O)[C@H](C)NC(=O)[C@H](CCC(N)=O)NC(=O)[C@H](CCC(=O)O)NC(=O)[C@H](CC(C)C)NC(=O)[C@H](CC(C)C)NC(=O)[C@@H](NC(=O)[C@H](CCC(N)=O)NC(=O)[C@H](CC(C)C)NC(=O)[C@H](CC(C)C)NC(=O)CNC(=O)[C@@H](NC(=O)[C@@H]1CCCN1C(=O)[C@@H](NC(=O)[C@H](CC(=O)O)NC(=O)[C@H](CC(C)C)NC(=O)[C@H](CO)NC(=O)[C@H](CC(C)C)NC(=O)[C@@H](NC(=O)[C@@H](N)[C@@H](C)CC)C(C)C)C(C)C)[C@@H](C)CC)[C@@H](C)CC)[C@@H](C)O)[C@@H](C)CC)C(=O)N[C@@H](C)C(=O)N[C@@H](CCC(=O)O)C(=O)N[C@H](C(N)=O)C(C)C [compound 49] (H-IVLSLDVPIGLLQILLEQARAQAARERAK([AEEA-AEEA-γGlu-γGlu-C20 diacid])TNAEI[Nle]AEV-NH2) |  |  |  | 0.126 | 3160 |
| CC[C@H](C)[C@H](N)C(=O)N[C@H](C(=O)N[C@@H](CC(C)C)C(=O)N[C@@H](CO)C(=O)N[C@@H](CC(C)C)C(=O)N[C@@H](CC(=O)O)C(=O)N[C@H](C(=O)N1CCC[C@H]1C(=O)N[C@H](C(=O)NCC(=O)N[C@@H](CC(C)C)C(=O)N[C@@H](CC(C)C)C(=O)N[C@@H](CCC(N)=O)C(=O)N[C@H](C(=O)N[C@@H](CC(C)C)C(=O)N[C@@H](CC(C)C)C(=O)N[C@@H](CCC(=O)O)C(=O)N[C@@H](CCC(N)=O)C(=O)N[C@@H](C)C(=O)N[C@@H](CCCNC(=N)N)C(=O)N[C@@H](C)C(=O)N[C@@H](CCCNC(=N)N)C(=O)N[C@@H](C)C(=O)N[C@@H](CC(C)C)C(=O)N[C@@H](CCCNC(=N)N)C(=O)N[C@@H](CCC(=O)O)C(=O)N[C@@H](CCC(=O)O)C(=O)N[C@@H](C)C(=O)N[C@@H](CCCCNC(=O)COCCOCCNC(=O)COCCOCCNC(=O)CC[C@H](NC(=O)CC[C@H](NC(=O)CCCCCCCCCCCCCCCCCCC(=O)O)C(=O)O)C(=O)O)C(=O)N[C@H](C(=O)N[C@@H](CC(N)=O)C(=O)N[C@@H](C)C(=O)N[C@@H](CCC(=O)O)C(=O)N[C@H](C(=O)N[C@@H](CC(C)C)C(=O)N[C@@H](C)C(=O)N[C@@H](CCC(=O)O)C(=O)N[C@H](C(N)=O)C(C)C)[C@@H](C)CC)[C@@H](C)O)[C@@H](C)CC)[C@@H](C)CC)C(C)C)C(C)C [compound 50] (H-IVLSLDVPIGLLQILLEQARARALREEAK([AEEA-AEEA-γGlu-γGlu-C20 diacid])TNAEILAEV-NH2) |  |  |  | 2 | 158000 |
| CCCC[C@H](NC(=O)[C@@H](NC(=O)[C@H](CCC(=O)O)NC(=O)[C@H](C)NC(=O)[C@H](CC(N)=O)NC(=O)[C@@H](NC(=O)[C@H](CCCCNC(=O)COCCOCCNC(=O)COCCOCCNC(=O)CC[C@H](NC(=O)CC[C@H](NC(=O)CCCCCCCCCCCCCCCCCCC(=O)O)C(=O)O)C(=O)O)NC(=O)[C@H](C)NC(=O)[C@H](CCC(=O)O)NC(=O)[C@H](CCC(=O)O)NC(=O)[C@H](CCCNC(=N)N)NC(=O)[C@H](CC(C)C)NC(=O)[C@H](C)NC(=O)[C@H](CCCNC(=N)N)NC(=O)[C@H](C)NC(=O)[C@H](CCCNC(=N)N)NC(=O)[C@H](C)NC(=O)[C@H](CCC(N)=O)NC(=O)[C@H](CCC(=O)O)NC(=O)[C@H](CC(C)C)NC(=O)[C@H](CC(C)C)NC(=O)[C@@H](NC(=O)[C@H](CCC(N)=O)NC(=O)[C@H](CC(C)C)NC(=O)[C@H](CC(C)C)NC(=O)CNC(=O)[C@@H](NC(=O)[C@@H]1CCCN1C(=O)[C@@H](NC(=O)[C@H](CC(=O)O)NC(=O)[C@H](CC(C)C)NC(=O)[C@H](CO)NC(=O)[C@H](CC(C)C)NC(=O)[C@@H](NC(=O)[C@@H](N)[C@@H](C)CC)C(C)C)C(C)C)[C@@H](C)CC)[C@@H](C)CC)[C@@H](C)O)[C@@H](C)CC)C(=O)N[C@@H](C)C(=O)N[C@@H](CCC(=O)O)C(=O)N[C@H](C(N)=O)C(C)C [compound 51] (H-IVLSLDVPIGLLQILLEQARARALREEAK([AEEA-AEEA-γGlu-γGlu-C20 diacid])TNAEI[Nle]AEV-NH2) |  |  |  | 0.794 | 126000 |
